Experimental data from article PMC9611726, “Synthesis, Characterization and Biological Investigation of New N-Modified Spinorphin Analogs” (Pharmaceuticals, 2022).
Where a SMILES comes first, the peptide text is derived from it. [ ]: non-standard residue; d: D form. The star is where a group is joined. X1 = CCN(CC)c1ccc2c(c1)Oc1cc(N(CC)CC)ccc1C2c1ccccc1C(=O)*; Ac6c = NC1(C(=O)O)CCCCC1; Ac5c = NC1(C(=O)O)CCCC1

Assay: Acid-base constants (pKa) and isoelectric point (pI) by fluorimetry, confirmed by UV-Vis
Type: physicochemical
Details: for pKa2 / pKa1: fluorimetric, inflection of I/pH curve, confirmed by UV-Vis, average values from repeatable results; for pKa2: pH 1 to 12, rhodamine part (λex 560 nm); for pKa1: pH 1 to 12, tryptophan emission (λex 275 nm); for pI: isoelectric point calculated from the protolytic constants
Method: When studying the fluorescence properties, the emission spectra were recorded upon excitation at two wavelengths: λ^ex = 275 nm where tryptophan/tyrosine fluoresces, and at λ^ex = 560 nm where excitation of the rhodamine moiety is possible (Figure 5 and Figure 6). […] With both amino acids present in the indicated complex mixture, the fluorescence in the 300–400 nm range is more likely to originate from the indole group of the tryptophan residue, which is known to emit at ~350 nm at an excitation wavelength of 280 nm. Moreover, spectra were recorded at different pHs of the medium to determine the study compounds’ acid constants and isoelectric points. All compounds show similar behavior of fluorescence properties with minimal difference in wavelength where the compound absorbs in the visible region (1–2 nm). A strong decrease in the intensity of the emission maximum at λ^em = 585 nm is observed with an increase in the pH of the medium, which is due to the structural changes associated with the closure of the spirolactam ring at rhodamine. pH also affects the fluorescence emission intensity of the tryptophan/tyrosine spectral line. […] The obtained emission spectra at different pHs helped us to determine the acidity constants of the obtained compounds. pK values were obtained by selecting the inflection points of the I/pH curve at two wavelengths: 275 nm, where tryptophan emits, and 575 nm for the rhodamine part, respectively (Figure 5 and Figure 6, inserted graphs). At these points the concentrations of conjugated acid and base are equal, i.e., [HRh-S] = [Rh-S-], and according to the known relationship […] at this point pKa = рН. Equations (1) and (2) given in the experimental part were also used to calculate the acid constants to confirm the values. […] The proven higher values of the constants given in [24] are due to the influence of the –OH group of tyrosine, located near the spirolactam ring of rhodamine and leading to its more effortless opening. […] Based on the obtained values of the protolytic constants, the isoelectric points were calculated where the compounds would show zero charge and reduced solubility (Table 1). […] Stokes shift, showing the differences between the structure of the fluorophore in the ground S0 state and in the first excited state S1, was also determined as an essential feature for the rhodamine peptide derivatives (Figure 5, Table 2). The Stokes shift for all compounds at the rhodamine moiety is ~859 cm^−1, which is consistent with the rhodamine derivatives known in the literature.
Acid base constants and isoelectric points were determined fluorimetrically and confirmed by UV–Vis analyses. Absorption and emission spectra were recorded on a series of solutions with the same concentration of the peptide derivatives at different pHs (from 1 to 12). The assay data (intensity/absorbance versus pH) were processed with Origin8Pro mathematical software. The pK value were determined using the following equations:log [(Amax − A)/(A − Amin)] = pH − pKa(1) log [(IF max − IF)/(IF − IF min)] = pH – pKa(2) where the minimum (Amin) and the maximum (Amax) absorbances are at 275 nm and 557 nm, respectively, A is the absorbance at the given pH value; Fmax and Fmin are the maximum and minimum fluorescence emission intensity at 356 and 585 nm, respectively, F is the fluorescence intensity at the given pH value.

Structure (SMILES)	pKa2	pKa1	pI
CCN(CC)c1ccc2c(c1)Oc1cc(N(CC)CC)ccc1C2c1ccccc1C(=O)N[C@@H](CC(C)C)C(=O)N[C@H](C(=O)N[C@H](C(=O)N[C@@H](Cc1ccc(O)cc1)C(=O)NC1(C(=O)N[C@@H](Cc2c[nH]c3ccccc23)C(=O)N[C@H](C(N)=O)[C@@H](C)O)CCCC1)C(C)C)C(C)C [Rh-S5, rhodamineB-Leu-Val-Val-Tyr-Ac5c-Trp-Thr-NH2] (X1-LVVY[Ac5c]WT-NH2)	5.36	5.11	5.23
CCN(CC)c1ccc2c(c1)Oc1cc(N(CC)CC)ccc1C2c1ccccc1C(=O)N[C@@H](CC(C)C)C(=O)N[C@H](C(=O)N[C@H](C(=O)N[C@@H](Cc1ccc(O)cc1)C(=O)NC1(C(=O)N[C@@H](Cc2c[nH]c3ccccc23)C(=O)N[C@H](C(N)=O)[C@@H](C)O)CCCCC1)C(C)C)C(C)C [Rh-S6, rhodamineB-Leu-Val-Val-Tyr-Ac6c-Trp-Thr-NH2] (X1-LVVY[Ac6c]WT-NH2)	4.94	6.35	5.65
CCN(CC)c1ccc2c(c1)Oc1cc(N(CC)CC)ccc1C2c1ccccc1C(=O)N[C@@H](CC(C)C)C(=O)N[C@H](C(=O)N[C@H](C(=O)N[C@@H](Cc1ccc(O)cc1)C(=O)N1CCC[C@H]1C(=O)N[C@@H](Cc1c[nH]c2ccccc12)C(=O)N[C@H](C(N)=O)[C@@H](C)O)C(C)C)C(C)C [Rh-S, rhodamineB-Leu-Val-Val-Tyr-Pro-Trp-Thr-NH2] (X1-LVVYPWT-NH2)	4.56	7.09	5.82
